Laboratory results from patent publication US20240168011A1, “CLEARANCE ASSAY” (Akershus Universitetssykehus HF, priority 2021, published 2024).
Entries after “also recorded” stand apart in the source; their conditions may differ. Structures can show the parent of a compound that is named as a salt.

Tests used:
THP-1 cells [1] = experiment: Chase assay of Aβ catabolism, Simoa immunoassays of intracellular Aβ fragments (Example 1); type: cell-based; conditions: TPA-differentiated THP-1; 100 ng/ml Abeta40 2 h, 4 hours chase; 100 nM Bafilomycin, 100 nM Rapamycin, 100 μM Neprilysin inhibitor, 200 nM BACE inhibitor, 1 μM IDE inhibitor; vs 4 hour chase
Description: To adjust for inter-day variations in measurements for the different experiments, values were normalized using the baseline condition as the reference for each day of experiments using the following formula: [(biomarker value/mean biomarker value)[…])].
Statistical analyses were carried out with one-way ANOVA models. If a significant (p<0.05) omnibus (F-test) ANOVA was shown, planned comparisons according to our hypotheses were carried out. This included a main comparison between the reference condition and experimental conditions (endolysosomal inhibitors and autophagosome activators). The Figures thus indicate within each bar the percentage change, and associated statistical significance (p-value) or lack thereof (n.s.), as compared to the reference condition (100%) (i.e. the main comparison). For some experiments (FIGS. 4, 5 and 7), additional comparisons between experimental conditions were conducted in accordance with hypotheses. Significant between-group differences for these comparisons are shown with horizontal bars with the associated statistical significance (p-value), or lack thereof (n.s.).
Aβ catabolism and detoxification, and the effect of example inhibitors and activators thereon, was measured using antibodies specific for intracellular Aβ mid-domain peptides, i.e. catabolism products. In particular, inhibition of endolysosomal activity is expected to reduce degradation and increase concentrations of species, here studied with Bafilomycin, which blocks V-ATPase and inhibits acidification of endolysosomes, thereby inhibiting endolysosomal enzyme activities. Addition of inhibitors of endolysosomal enzymes Neprilysin (Saido 2013) and Insulin Degradation Enzymes are expected to have similar effects (Jha, Jha et al. 2015, Sikanyika, Parkington et al. 2019), whereas BACE1 is involved both in Aβ generation and […] (Vassar, Kovacs et al. 2009, Liebsch, Kulic et al. 2019). Enhancing macroautophagy using Rapamycin is also expected to increase Aβ catabolism (FIG. 3; Spilman, Podlutskaya et al. 2010, Malik, Maddison et al. 2019)
Immunoassays were developed on the single molecule array (Simoa) platform (Quanterix, US) using proprietary antibodies directed against different epitopes of the amyloid β protein (Shown in FIG. 1; SEQ ID NOs: 3-5). The Aβx-40/42 assay used a 40-42 end-specific sheep monoclonal AB.4D7 (Bioventix plc, UK) as the capture antibody, and a sheep monoclonal AB.2A9 (Bioventix plc, UK) with a mid-domain epitope (SEQ ID NO: 7) as the detection antibody. The 40-42 end-specific antibody was raised against the epitope shown in SEQ ID NO: 5, and binds the C-terminal of both Aβ1-42 (SEQ ID NO: 1) and Aβ1-40 (SEQ ID NO: 2). The Aβ20-x assay used the same AB.4D7 antibody as the capture antibody, and the highly specific 20-cut point sheep monoclonal antibody, ABNT.2B8 (Bioventix plc, UK) as the detection antibody. For the Aβx-34 assay, AB.2A9 was used as the capture antibody and an anti-complex antibody, BVX.33420/H3 (Bioventix plc, UK), which preferentially binds a fragment having the C-terminal of SEQ ID NO: 6, was used as the detection antibody, ensuring mid-domain x-34 specificity.
Chase Assays THP-1 cells were differentiated toward macrophages by a 48 hour treatment with 100 nM TPA (12-O-tetradecanoylphorbol-13-acetate). Media was replaced with fresh medium with or without modulators of the autophagic/endolysosomal system: 100 nM Bafilomycin, 100 nM Rapamycin, 100 μM Neprilysin inhibitor, 200 nM BACE inhibitor, or 1 μM IDE inhibitor, or a triple combination of the enzyme inhibitors Neprilysin inhibitor, BACE inhibitor and IDE inhibitor. The cells were incubated for 1 hour before adding 100 ng/ml Abeta40 to the cells. Cells were further incubated for 2 hours before removing Abeta40 and a continued 4 hours chase with or without the respective modulators. Cells were washed before adding lysis buffer. Lysates were kept at −80° C. until analysis.

THP-1 cells [2] = experiment: Chase assay with proposed AD interventions, Mesoscale immunoassay (Example 2); type: cell-based; conditions: 16 hours DHA (100 μM) and/or NS1738 (10 μM); Aβ1-40 500 ng/ml; reference Aβ40 4 hour chase
Description: An immunoassay was set up on a Mesoscale platform using the same antibodies as, and a similar method to, Example 1. Cells were incubated overnight (16 hours) with DHA (100 μM) and/or NS1738 (10 μM). Aβ1-40 was added at a concentration of 500 ng/ml, and removed from the media before the 4 hour chase. DHA and NS1738 were removed from the media during the 4 hour chase.

THP-1 cells [3] = experiment: Clearance assay on a background of LPS inflammatory activation, Mesoscale immunoassay (Example 4); type: cell-based; conditions: with LPS, 16 h; Aβ1-40 2 h; 4 h chase; reference LPS+Aβ40 4 hour chase
Description: The immunoassay was set up on a Mesoscale platform. THP-1 cells were differentiated towards phagocytic monocytes/macrophages during a 48 h incubation with 12-O-tetra-decanoylphorbol-13-acetate (TPA). Media were replaced with fresh medium containing LPS alone or LPS together with DHA or NS1738 or combination of DHA and NS1738, for an overnight incubation (16 h). The marker protein (Aβ1-40) was added to the cells for an additional 2 h incubation. Media were replaced with fresh medium without any additives and the cells were further incubated for a 4 h chase period. The cells were kept cold, media removed, and the cells washed with cold PBS. Lysis buffer containing protease inhibitors and sodium dodecyl sulfate (SDS) was added to the cells. After lysis, the cells were scraped and transferred to tubes and kept in a −80° C. freezer. Lysates were sonicated and treated with DNase before analysis on the degradation assays.

[4] = system: cells in an innate immune model system; conditions: DHA treatment of cells in an innate immune model system; cited from earlier work
[5] = molecular target: Aβ20-34, mid-domain fragment of Aβ1-42 and Aβ1-40; experiment: monocyte lysate pool + 12 pg/ml Aβ20-34 pre-incubated with the antibody, then Simoa Aβx-34 immunoassay
[6] = molecular target: Aβ20-34, mid-domain fragment of Aβ1-42 and Aβ1-40; experiment: monocyte lysate pool + 12 pg/ml Aβ20-34 pre-incubated with the antibody, then Simoa Aβx-34 immunoassay (untreated 13.8 pg/ml)

Row | Compound | intracellular Aβ20-x level (THP-1 cells [1]) | intracellular Aβx-34 level (THP-1 cells [1]) | intracellular Aβx-40/42 level (THP-1 cells [1]) | other results
1 | NC1=N[C@@]2(c3cc(NC(=O)c4ccc(F)cn4)ccc3F)COC[C@H]2CS1 [BACE inhibitor, LY2886721] | increases | no effect | no effect | –
2 | CO/C1=C\C(C)=C\[C@@H](C)[C@@H](O)[C@@H](C)C/C(C)=C/C=C/[C@H](OC)[C@@H]([C@@H](C)[C@@H](O)[C@H](C)[C@@]2(O)C[C@@H](O)[C@H](C)[C@@H](C(C)C)O2)OC1=O [Bafilomycin, Bafilomycin A1] | significantly increases | non-significantly increases | significantly increases | –
3 | CC/C=C\C/C=C\C/C=C\C/C=C\C/C=C\C/C=C\CCC(=O)O [DHA, (4Z, 7Z, 10Z, 13Z, 16Z, 19Z)-4,7, 10, 13, 16, 19-docosahexaenoic acid] | – | – | – | intracellular Aβx-34 level (THP-1 cells [2]): reduces the amount; also recorded: decreased; intracellular Aβ20-x level (THP-1 cells [3]): continue to have an effect; intracellular Aβx-34 level (THP-1 cells [3]): continue to have an effect; intracellular Aβx-40 level (THP-1 cells [3]): continue to have an effect; Aβ1-42 phagocytosis and degradation [4]: increase
4 | NCCCC[C@@H]1NC(=O)/C=C/C(=O)N[C@H](C(N)=O)CCCCNC(=O)[C@@H](Cc2ccc(C(=O)c3ccccc3)cc2)NC(=O)[C@H](CC2CCCCC2)NC1=O [IDE inhibitor, 6bK] | increases | no effect | no effect | –
5 | O=C(Nc1cc(Cl)ccc1O)Nc1cc(C(F)(F)F)ccc1Cl [NS1738] | – | – | – | intracellular Aβx-34 level (THP-1 cells [2]): reduces the amount; also recorded: decreased; intracellular Aβ20-x level (THP-1 cells [3]): continue to have an effect; intracellular Aβx-34 level (THP-1 cells [3]): continue to have an effect; intracellular Aβx-40 level (THP-1 cells [3]): continue to have an effect
6 | CC(C)C[C@H](NP(=O)(O)O[C@@H]1O[C@@H](C)[C@H](O)[C@@H](O)[C@H]1O)C(=O)N[C@@H](Cc1c[nH]c2ccccc12)C(=O)O [Neprilysin inhibitor, Phosphoramidon disodium salt] | increases | unchanged | increases | –
7 | unspecific antibody LB509 | – | – | – | Percent of untreated [5]: 80%; concentration left after depletion [6]: 11.1 pg/mL
